Results on three molecules are retold here after publication PMC8245078, “Development of novel benzofuran-isatin conjugates as potential antiproliferative agents with apoptosis inducing mechanism in Colon cancer” (Journal of Enzyme Inhibition and Medicinal Chemistry, 2021).

The structures appear in SMILES notation. Where two headings read alike, the source gives them in different places.

Assay type in all cases: cell-based
For one test, the system named is EKVX. Briefly: NCI single dose screening (10 µM). The settings on record: Homo sapiens, read-out: GI% (cell growth inhibition percentage).
The next test has as its system HOP-92. Nature of the test: NCI single dose screening (10 µM). The settings on record: Homo sapiens.
Another test concerns NCI-H23. Briefly: NCI single dose screening (10 µM). The settings on record: Homo sapiens.
Another test concerns NCI-H522. Nature of the test: NCI single dose screening (10 µM). The settings on record: Homo sapiens.
For a further test, the system named is HCC-2998. Briefly: NCI single dose screening (10 µM). The following applies: Homo sapiens.
Another test deals with COLO 205. Nature of the test: NCI single dose screening (10 µM). The settings on record: Homo sapiens.
The next test has as its system SW-620. Nature of the test: NCI single dose screening (10 µM). The settings on record: Homo sapiens.
For the next test, the system named is HCT-116. Nature of the test: NCI single dose screening (10 µM). The following applies: Homo sapiens.
Another test has as its system KM12. Briefly: NCI single dose screening (10 µM). The settings on record: Homo sapiens.
The subject of another test is SF-539. Nature of the test: NCI single dose screening (10 µM). The following applies: Homo sapiens.
Another test relates to U251. Briefly: NCI single dose screening (10 µM). The following applies: Homo sapiens.
A further test concerns SNB-19. Briefly: NCI single dose screening (10 µM). The following applies: Homo sapiens.
The test system of another test is M14. Nature of the test: NCI single dose screening (10 µM). The settings on record: Homo sapiens.
A further test deals with UACC-257. Briefly: NCI single dose screening (10 µM). The following applies: Homo sapiens.
Another test relates to UACC-62. Nature of the test: NCI single dose screening (10 µM). The settings on record: Homo sapiens.
The subject of another test is OVCAR-8. Briefly: NCI single dose screening (10 µM). The following applies: Homo sapiens.
For another test, the system named is OVCAR-4. Briefly: NCI single dose screening (10 µM). The settings on record: Homo sapiens.
For the next test, the system named is ACHN. Nature of the test: NCI single dose screening (10 µM). The following applies: Homo sapiens, read-out: GI% (cell growth inhibition percentage).
For a further test, the system named is RXF 393. Briefly: NCI single dose screening (10 µM). The following applies: Homo sapiens.
The next test has as its system DU-145. Nature of the test: NCI single dose screening (10 µM). The settings on record: Homo sapiens.
In a further test the test system is T-47D. Nature of the test: NCI single dose screening (10 µM). The following applies: Homo sapiens, T47D, read-out: GI% (cell growth inhibition percentage).
Test [1] relates to NCI-55 cancer cell line panel. Nature of the test: NCI single dose screening (10 µM), whole panel. The settings on record: Homo sapiens, read-out: Mean inhibition, % (mean GI%).
The mark [2] stands for this setting: HOP-92, read-out: GI% (cell growth inhibition percentage).
[3] abbreviates: NCI-H23, read-out: GI% (cell growth inhibition percentage).
[4] abbreviates: NCI-H522, read-out: GI% (cell growth inhibition percentage).
The mark [5] stands for this setting: HCC 2998, read-out: GI% (cell growth inhibition percentage).
The mark [6] stands for this setting: COLO 205, read-out: GI% (cell growth inhibition percentage).
Where [7] appears, read: SW-620, read-out: GI% (cell growth inhibition percentage).
Setting [8] is: HCT-116, read-out: GI% (cell growth inhibition percentage).
Where [9] appears, read: KM12, read-out: GI% (cell growth inhibition percentage).
Where [10] appears, read: SF-539, read-out: GI% (cell growth inhibition percentage).
The mark [11] stands for this setting: U-251, read-out: GI% (cell growth inhibition percentage).
Where [12] appears, read: SNB-19, read-out: GI% (cell growth inhibition percentage).
Setting [13] is: M14, read-out: GI% (cell growth inhibition percentage).
Where [14] appears, read: UACC-257, read-out: GI% (cell growth inhibition percentage).
Where [15] appears, read: UACC-62, read-out: GI% (cell growth inhibition percentage).
Where [16] appears, read: OVCAR-8, read-out: GI% (cell growth inhibition percentage).
Setting [17] is: OVCAR-4, read-out: GI% (cell growth inhibition percentage).
Setting [18] is: RXF 393, read-out: GI% (cell growth inhibition percentage).
Setting [19] is: DU-145, read-out: GI% (cell growth inhibition percentage).

Consider `Cc1c(C(=O)N/N=C2\C(=O)N(Cc3ccccc3)c3ccccc32)oc2ccccc12` [Compound 7d], for which the inhibition (commonly how much of the control response was suppressed) at 10 µM with EKVX is 30.2%; with HOP-92 (setting [2]) it was 12.6%; with NCI-H23 (setting [3]) it was 13.2%; in the test with NCI-H522 (setting [4]), 21.7%; in the test on HCC-2998 (setting [5]), less than 10%; with COLO 205 (setting [6]), less than 10%. The inhibition at 10 µM is 11.2% in the test with SW-620 (setting [7]); less than 10% with HCT-116 (setting [8]); less than 10% in the test with KM12 (setting [9]); less than 10% in the test on SF-539 (setting [10]); less than 10% in the test with U251 (setting [11]); 11.6% in the test on SNB-19 (setting [12]). Besides, the inhibition at 10 µM in the test with M14 (setting [13]) is less than 10%; in the test with UACC-257 (setting [14]) it was less than 10%; with UACC-62 (setting [15]), 20.6%; in the test with OVCAR-8 (setting [16]), less than 10%; in the test on OVCAR-4 (setting [17]) it was less than 10%; in the test on ACHN, 13.3%. Further, the inhibition at 10 µM was less than 10% in the test with RXF 393 (setting [18]), less than 10% with DU-145 (setting [19]), 33.3% in the test with T-47D and 6.01% in test [1].

Consider `Cc1c(C(=O)N/N=C2\C(=O)Nc3ccc(F)cc32)oc2ccccc12` [Compound 5b], for which the inhibition at 10 µM in the test on EKVX (Non-small cell lung cancer, single dose 10^−5 M) is 29.6%; with HOP-92 (HOP-92, Non-small cell lung cancer, single dose 10^−5 M, read-out: GI% (cell growth inhibition percentage)), less than 10%; in the test on NCI-H23 (NCI-H23, Non-small cell lung cancer, single dose 10^−5 M, read-out: GI% (cell growth inhibition percentage)), less than 10%; in the test with NCI-H522 (NCI-H522, Non-small cell lung cancer, single dose 10^−5 M, read-out: GI% (cell growth inhibition percentage)), 10.4%; in the test on HCC-2998 (HCC-2998, Colon cancer, single dose 10^−5 M, read-out: GI% (cell growth inhibition percentage)), less than 10%; with COLO 205 (COLO 205, Colon cancer, single dose 10^−5 M, read-out: GI% (cell growth inhibition percentage)), less than 10%. For the same molecule, the inhibition at 10 µM was less than 10% with SW-620 (SW-620, Colon cancer, single dose 10^−5 M, read-out: GI% (cell growth inhibition percentage)); less than 10% with HCT-116 (HCT-116, Colon cancer, single dose 10^−5 M, read-out: GI% (cell growth inhibition percentage)); less than 10% in the test with KM12 (KM12, Colon cancer, single dose 10^−5 M, read-out: GI% (cell growth inhibition percentage)); less than 10% in the test with SF-539 (SF-539, CNS cancer, single dose 10^−5 M, read-out: GI% (cell growth inhibition percentage)); less than 10% in the test on U251 (U-251, U251, CNS cancer, single dose 10^−5 M, read-out: GI% (cell growth inhibition percentage)); less than 10% in the test on SNB-19 (SNB-19, CNS cancer, single dose 10^−5 M, read-out: GI% (cell growth inhibition percentage)). Besides, the inhibition at 10 µM with M14 (M14, Melanoma, single dose 10^−5 M, read-out: GI% (cell growth inhibition percentage)) is less than 10%; in the test with UACC-257 (UACC-257, Melanoma, single dose 10^−5 M, read-out: GI% (cell growth inhibition percentage)), less than 10%; in the test with UACC-62 (UACC-62, Melanoma, single dose 10^−5 M, read-out: GI% (cell growth inhibition percentage)), 10.9%; in the test with OVCAR-8 (OVCAR-8, Ovarian cancer, single dose 10^−5 M, read-out: GI% (cell growth inhibition percentage)), less than 10%; in the test on OVCAR-4 (OVCAR-4, Ovarian cancer, single dose 10^−5 M, read-out: GI% (cell growth inhibition percentage)), less than 10%; in the test with ACHN (Renal cancer, single dose 10^−5 M) it was less than 10%. Besides, the inhibition at 10 µM with RXF 393 (RXF 393, Renal cancer, single dose 10^−5 M, read-out: GI% (cell growth inhibition percentage)) is less than 10%; in the test on DU-145 (DU-145, Prostate cancer, single dose 10^−5 M, read-out: GI% (cell growth inhibition percentage)), less than 10%; in the test on T-47D (T-47D, Breast cancer, single dose 10^−5 M) it was less than 10%; in test [1] (mean over NCI-55 cell lines, single dose 10^−5 M), 0.75%.

For `CCCN1C(=O)/C(=N\NC(=O)c2oc3ccccc3c2C)c2ccccc21` [Compound 7b], the inhibition at 10 µM with EKVX was 32.4%; in the test with HOP-92 (setting [2]), less than 10%; in the test on NCI-H23 (setting [3]) it was 15.1%; in the test on NCI-H522 (setting [4]) it was 10.3%; with HCC-2998 (setting [5]), less than 10%; with COLO 205 (setting [6]), less than 10%. For the same molecule, the inhibition at 10 µM with SW-620 (setting [7]), in the test on HCT-116 (setting [8]), with KM12 (setting [9]), in the test on SF-539 (setting [10]), with U251 (setting [11]) and with SNB-19 (setting [12]) was less than 10% throughout. The inhibition at 10 µM in the test with M14 (setting [13]) was less than 10%; in the test on UACC-257 (setting [14]), less than 10%; in the test on UACC-62 (setting [15]), 16.9%; in the test with OVCAR-8 (setting [16]), less than 10%; in the test on OVCAR-4 (setting [17]), less than 10%; with ACHN it was 11.6%. In addition, the inhibition at 10 µM was less than 10% in the test on RXF 393 (setting [18]), less than 10% in the test with DU-145 (setting [19]), 23.8% with T-47D and 5.18% in test [1].
